Data as given in ChEMBL document CHEMBL4118154, “Discovery of evocalcet, a next-generation calcium-sensing receptor agonist for the treatment of hyperparathyroidism” (Bioorg Med Chem Lett, 2018).
The source made the active and inactive calls. The calls are words filed in the database; no cut-off is given here.

Tests used:
CYP2B6 = target: T1, CYP2B6 (Homo sapiens, UniProt P20813); experiment: Inhibition of CYP2B6 (unknown origin); format: ADME
T1 sequence (P20813 whole entry): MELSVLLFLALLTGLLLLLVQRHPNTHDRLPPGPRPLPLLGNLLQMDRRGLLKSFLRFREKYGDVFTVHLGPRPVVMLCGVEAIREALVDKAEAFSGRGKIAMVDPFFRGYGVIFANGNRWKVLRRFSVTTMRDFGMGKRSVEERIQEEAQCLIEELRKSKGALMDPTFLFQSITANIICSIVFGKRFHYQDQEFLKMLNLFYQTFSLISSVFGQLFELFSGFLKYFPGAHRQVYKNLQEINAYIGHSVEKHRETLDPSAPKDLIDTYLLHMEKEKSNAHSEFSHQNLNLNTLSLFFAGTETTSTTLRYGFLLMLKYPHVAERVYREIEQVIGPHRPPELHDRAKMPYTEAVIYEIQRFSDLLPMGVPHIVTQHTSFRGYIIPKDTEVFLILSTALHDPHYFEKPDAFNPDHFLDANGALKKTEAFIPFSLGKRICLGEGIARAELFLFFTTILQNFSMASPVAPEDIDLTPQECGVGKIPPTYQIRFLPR

[1] = AUC (0 to infinity) in monkey at 0.3 mg/kg, iv; format: ADME, organism-based, Macaca mulatta; set-up: dose 0.3 mg/kg, time infinity, route intravenous; details: rhesus monkey, in vivo
CYP3A4/5 = CYP3A4/5 (Homo sapiens, UniProt P08684+P20815); experiment: Inhibition of CYP3A4/5 (unknown origin); format: ADME, protein assay
[2] = Half life in monkey at 1 mg/kg, po; format: ADME, organism-based, Macaca mulatta; details: rhesus monkey, in vivo
[3] = AUC (0 to infinity) in rat at 0.3 mg/kg, iv; format: ADME, organism-based; set-up: dose 0.3 mg/kg, route intravenous, time infinity; details: in vivo
CYP2A6 = target: T2, CYP2A6 (Homo sapiens, UniProt P11509); experiment: Inhibition of CYP2A6 (unknown origin); format: ADME
T2 sequence (P11509 whole entry): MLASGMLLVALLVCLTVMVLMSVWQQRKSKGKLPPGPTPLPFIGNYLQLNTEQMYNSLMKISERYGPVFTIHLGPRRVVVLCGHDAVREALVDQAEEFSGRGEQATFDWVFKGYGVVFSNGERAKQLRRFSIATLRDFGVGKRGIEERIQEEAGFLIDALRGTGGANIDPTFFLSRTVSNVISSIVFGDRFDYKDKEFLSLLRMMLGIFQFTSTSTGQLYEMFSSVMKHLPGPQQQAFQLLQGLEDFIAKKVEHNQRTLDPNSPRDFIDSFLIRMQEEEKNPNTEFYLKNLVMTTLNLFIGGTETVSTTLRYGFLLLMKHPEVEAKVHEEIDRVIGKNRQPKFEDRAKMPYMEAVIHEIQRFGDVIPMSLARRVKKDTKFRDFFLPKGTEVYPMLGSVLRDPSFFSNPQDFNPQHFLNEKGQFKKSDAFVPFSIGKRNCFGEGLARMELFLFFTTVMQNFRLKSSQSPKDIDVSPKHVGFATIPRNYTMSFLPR

[4] = Total clearance in rat at 0.3 mg/kg, iv; format: ADME, organism-based; details: in vivo
[5] = target: T3, Extracellular calcium-sensing receptor (Homo sapiens) (UniProt P41180); experiment: Binding affinity to human CaSR expressed in HEK293 cells after 30 mins in presence of NPS 568 by liquid scintillation counting method; format: cell-based
T3 sequence (whole entry): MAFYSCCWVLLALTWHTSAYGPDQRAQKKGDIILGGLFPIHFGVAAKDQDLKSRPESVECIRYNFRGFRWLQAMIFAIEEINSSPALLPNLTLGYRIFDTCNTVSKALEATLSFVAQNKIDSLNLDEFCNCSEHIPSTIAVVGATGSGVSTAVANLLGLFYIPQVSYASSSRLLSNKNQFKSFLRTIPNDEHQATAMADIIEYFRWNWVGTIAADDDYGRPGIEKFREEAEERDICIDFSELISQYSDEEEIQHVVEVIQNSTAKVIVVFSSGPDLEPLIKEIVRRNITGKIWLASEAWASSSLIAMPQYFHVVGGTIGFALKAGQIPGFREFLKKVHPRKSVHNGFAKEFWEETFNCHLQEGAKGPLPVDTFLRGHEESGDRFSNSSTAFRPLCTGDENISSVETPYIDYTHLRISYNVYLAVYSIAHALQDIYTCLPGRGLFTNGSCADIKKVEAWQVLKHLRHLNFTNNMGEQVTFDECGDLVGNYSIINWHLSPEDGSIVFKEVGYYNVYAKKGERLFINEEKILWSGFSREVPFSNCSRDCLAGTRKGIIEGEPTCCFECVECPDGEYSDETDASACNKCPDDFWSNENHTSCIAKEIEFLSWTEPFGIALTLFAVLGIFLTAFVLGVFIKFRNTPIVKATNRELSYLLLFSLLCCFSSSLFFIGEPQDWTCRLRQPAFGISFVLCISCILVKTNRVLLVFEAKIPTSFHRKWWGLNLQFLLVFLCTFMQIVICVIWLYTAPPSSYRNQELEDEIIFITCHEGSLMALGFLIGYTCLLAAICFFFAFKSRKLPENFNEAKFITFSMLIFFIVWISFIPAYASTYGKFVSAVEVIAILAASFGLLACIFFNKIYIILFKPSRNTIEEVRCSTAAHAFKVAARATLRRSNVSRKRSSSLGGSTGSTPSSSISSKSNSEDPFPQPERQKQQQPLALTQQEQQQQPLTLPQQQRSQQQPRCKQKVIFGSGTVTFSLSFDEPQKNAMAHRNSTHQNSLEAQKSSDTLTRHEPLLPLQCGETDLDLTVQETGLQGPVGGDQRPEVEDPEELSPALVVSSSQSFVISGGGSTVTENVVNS

CYP2C9 = CYP2C9 (Homo sapiens, UniProt P11712); experiment: Inhibition of CYP2C9 (unknown origin); format: ADME
[6] = Oral bioavailability in rat at 1 mg/kg; format: ADME, organism-based; details: in vivo
CYP2C19 = CYP2C19 (Homo sapiens, UniProt P33261); experiment: Inhibition of CYP2C19 (unknown origin); format: ADME
[7] = Volume of distribution at steady state in monkey at 0.3 mg/kg, iv; format: ADME, organism-based, Macaca mulatta; details: rhesus monkey, in vivo, read-out: Vdss

Chain of CYP2C19 (P33261 whole entry): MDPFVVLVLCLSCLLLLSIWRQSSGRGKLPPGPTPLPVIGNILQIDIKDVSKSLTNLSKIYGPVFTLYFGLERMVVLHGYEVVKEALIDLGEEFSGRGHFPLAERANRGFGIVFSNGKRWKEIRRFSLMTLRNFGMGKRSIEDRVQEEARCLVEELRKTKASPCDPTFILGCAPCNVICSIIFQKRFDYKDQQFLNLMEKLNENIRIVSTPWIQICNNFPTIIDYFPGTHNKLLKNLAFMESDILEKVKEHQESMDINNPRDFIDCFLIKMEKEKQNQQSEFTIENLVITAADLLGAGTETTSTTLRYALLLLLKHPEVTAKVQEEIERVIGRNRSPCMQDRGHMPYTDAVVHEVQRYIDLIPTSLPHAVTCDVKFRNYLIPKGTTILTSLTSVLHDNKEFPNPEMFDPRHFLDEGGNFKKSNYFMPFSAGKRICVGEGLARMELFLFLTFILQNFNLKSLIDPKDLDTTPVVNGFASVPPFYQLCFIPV
Chain of CYP2C9 (P11712 whole entry): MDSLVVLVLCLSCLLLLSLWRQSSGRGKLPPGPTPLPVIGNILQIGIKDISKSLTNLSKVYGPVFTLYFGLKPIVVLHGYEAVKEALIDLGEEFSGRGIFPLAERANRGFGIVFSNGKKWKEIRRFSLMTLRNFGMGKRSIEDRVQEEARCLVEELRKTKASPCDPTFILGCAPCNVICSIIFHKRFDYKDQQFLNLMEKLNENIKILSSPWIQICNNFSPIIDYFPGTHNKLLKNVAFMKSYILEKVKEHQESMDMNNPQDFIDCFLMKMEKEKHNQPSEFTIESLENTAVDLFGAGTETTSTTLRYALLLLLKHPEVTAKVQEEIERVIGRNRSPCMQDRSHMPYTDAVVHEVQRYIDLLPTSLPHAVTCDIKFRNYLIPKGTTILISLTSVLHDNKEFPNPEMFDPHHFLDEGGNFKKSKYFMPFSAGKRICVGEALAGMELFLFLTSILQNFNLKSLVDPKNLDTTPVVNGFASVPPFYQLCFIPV

C[C@@H](N[C@H]1CCN(c2ccc(CC(=O)O)cc2)C1)c1cccc2ccccc12.Cl.Cl
IC50 (CYP2B6): > 50 µM
AUC(0-inf) [1]: 987 ng·h/mL
IC50 (CYP3A4/5): > 50 µM
half-life [2]: 8.94 h
AUC(0-inf) [3]: 3010 ng·h/mL
IC50 (CYP2A6): > 50 µM
clearance [4]: 1.67 mL/min/kg
Activity [5]: inactive
IC50 (CYP2C9): > 50 µM
bioavailability [6]: 84.2%
IC50 (CYP2C19): > 50 µM
Vd [7]: 0.716 L/kg
